The record followed here is US11780821B2, “Inhibitors of fibroblast activation protein” (Praxis Biotech LLC, priority 2017, dated 2023).

The structures appear in SMILES notation. Like-named read-outs stand apart in the source and are kept apart here.

Holding throughout (type): biochemical
In assay [1] the target is T1, recombinant human FAPα (rhFAPα) (Homo sapiens, UniProt Q12884).
T1 construct: purchased R&S system (so in the source)
T1 sequence (Q12884 1-760): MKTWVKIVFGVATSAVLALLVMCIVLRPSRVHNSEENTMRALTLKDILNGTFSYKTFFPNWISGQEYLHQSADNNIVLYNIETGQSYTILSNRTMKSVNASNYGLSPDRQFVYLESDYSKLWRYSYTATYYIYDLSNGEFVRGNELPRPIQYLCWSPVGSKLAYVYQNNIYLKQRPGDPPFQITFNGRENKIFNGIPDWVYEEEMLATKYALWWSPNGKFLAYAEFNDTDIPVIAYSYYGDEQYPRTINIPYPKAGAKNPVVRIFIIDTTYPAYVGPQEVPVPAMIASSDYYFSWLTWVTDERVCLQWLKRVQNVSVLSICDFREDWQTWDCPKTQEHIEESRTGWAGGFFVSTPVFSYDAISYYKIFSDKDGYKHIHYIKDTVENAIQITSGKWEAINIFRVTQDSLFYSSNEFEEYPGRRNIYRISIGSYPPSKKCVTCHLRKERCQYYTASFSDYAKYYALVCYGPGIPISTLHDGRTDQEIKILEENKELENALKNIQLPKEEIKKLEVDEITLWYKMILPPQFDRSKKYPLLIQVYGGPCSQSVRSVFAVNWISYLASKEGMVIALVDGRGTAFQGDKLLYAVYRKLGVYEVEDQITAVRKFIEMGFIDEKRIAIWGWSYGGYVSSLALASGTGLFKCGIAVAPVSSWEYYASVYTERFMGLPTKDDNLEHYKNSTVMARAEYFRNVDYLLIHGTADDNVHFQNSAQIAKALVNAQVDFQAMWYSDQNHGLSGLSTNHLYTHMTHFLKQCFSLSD
As to the kind of experiment: FAPα enzymatic exopeptidase (dipeptidase) activity assay. As to conditions: for inhibition at 1 µM: 1 μM test compound, Z-Gly-Pro-AMC substrate, read-out: rhFAPα (% exo inh @ 1 μM); for IC50: exopeptidase, read-out: rhFAPα (exo IC50).

Assay [2] concerns the target T2, mouse plasma DPPIV (Mus musculus, UniProt P28843).
T2 construct: from tissue; host or cells: mouse plasma (C57BL/6, EDTA)
As to the kind of experiment: DPPIV enzymatic activity in mouse plasma. As to conditions: C57BL/6 mouse plasma; H-Gly-Pro-AMC substrate. Here is the method:
Approximately 500 μL of whole blood from one C57BL/6 mouse was harvested into BD Microtainer® tubes (K2) EDTA (#365974, Becton Dickinson and Co.) via terminal cardiac puncture. The blood sample was immediately centrifuged at approximately 9000 g at 4° C. for 5 minutes. Plasma was separated and stored at −80° C. in aliquots of 300 μL. To assay baseline DPPIV enzymatic exopeptidase activity, 5 μL of thawed, mouse plasma was diluted (1:5) in buffer (100 mM Tris-HCl, 400 mM NaCl, 50 mM salicylic acid, 1 mM EDTA, pH 7.5) and mixed with 35 µL of the same buffer before being pre-incubated with different concentrations of 10 μL of test compounds or DMSO vehicle for 15 minutes at 37° C. in 96-well black plates (Nunc, #237108). After pre-incubation, 50 μL of 200 μM dipeptide substrate H-Gly-Pro-AMC (Bachem, #L-1225) was added to the mixture. The assay was performed for 1 hour at 37° C. 7-Amino-4-Methylcoumarin (AMC) release was detected measuring fluorescence at an excitation wavelength of 360 nm and an emission wavelength of 460 nm using a Multifunction Microplate Reader (Synergy 4, Biotek). All measurements were carried out at least in duplicate.

Assay [3] deals with T3, recombinant human DPP9 (rhDPP9) (Homo sapiens, UniProt Q86TI2).
T3 construct: purchased R&S system (so in the source)
T3 sequence (Q86TI2 whole entry): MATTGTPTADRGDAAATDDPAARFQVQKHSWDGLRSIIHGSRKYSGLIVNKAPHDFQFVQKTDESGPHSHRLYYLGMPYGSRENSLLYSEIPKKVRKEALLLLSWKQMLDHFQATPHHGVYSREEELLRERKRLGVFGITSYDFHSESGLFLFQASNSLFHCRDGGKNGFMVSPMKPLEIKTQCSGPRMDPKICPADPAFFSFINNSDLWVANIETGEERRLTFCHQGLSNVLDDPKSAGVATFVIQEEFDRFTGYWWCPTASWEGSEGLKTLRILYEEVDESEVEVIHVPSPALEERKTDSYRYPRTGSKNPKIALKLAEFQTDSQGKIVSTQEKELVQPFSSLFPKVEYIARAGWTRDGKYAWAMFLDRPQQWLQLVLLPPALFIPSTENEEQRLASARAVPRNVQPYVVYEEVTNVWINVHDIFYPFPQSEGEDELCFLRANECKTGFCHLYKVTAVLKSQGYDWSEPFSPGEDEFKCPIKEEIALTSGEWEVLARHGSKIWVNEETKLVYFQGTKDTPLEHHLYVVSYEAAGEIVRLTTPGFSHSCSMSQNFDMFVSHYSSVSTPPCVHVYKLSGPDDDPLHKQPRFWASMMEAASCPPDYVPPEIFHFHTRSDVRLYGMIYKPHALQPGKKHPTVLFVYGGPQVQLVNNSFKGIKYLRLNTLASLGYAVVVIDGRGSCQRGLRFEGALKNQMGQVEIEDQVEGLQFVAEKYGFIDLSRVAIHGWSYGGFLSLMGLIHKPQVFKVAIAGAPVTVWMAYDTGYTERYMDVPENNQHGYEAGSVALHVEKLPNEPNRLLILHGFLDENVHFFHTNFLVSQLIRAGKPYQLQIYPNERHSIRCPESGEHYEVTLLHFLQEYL
As to the kind of experiment: DPP9 enzymatic activity assay. As to conditions: H-Gly-Pro-AMC substrate. The method, then: (§1) 7-Amino-4-Methylcoumarin (AMC) release was detected by measuring fluorescence at Ex/Em 380/460 nm using a Multifunction Microplate Reader (Synergy 4, Biotek). All measurements were carried out in triplicate.

Assay [4] deals with T4, recombinant human PREP (rhPREP) (Homo sapiens, UniProt P48147).
T4 sequence (P48147 1-710): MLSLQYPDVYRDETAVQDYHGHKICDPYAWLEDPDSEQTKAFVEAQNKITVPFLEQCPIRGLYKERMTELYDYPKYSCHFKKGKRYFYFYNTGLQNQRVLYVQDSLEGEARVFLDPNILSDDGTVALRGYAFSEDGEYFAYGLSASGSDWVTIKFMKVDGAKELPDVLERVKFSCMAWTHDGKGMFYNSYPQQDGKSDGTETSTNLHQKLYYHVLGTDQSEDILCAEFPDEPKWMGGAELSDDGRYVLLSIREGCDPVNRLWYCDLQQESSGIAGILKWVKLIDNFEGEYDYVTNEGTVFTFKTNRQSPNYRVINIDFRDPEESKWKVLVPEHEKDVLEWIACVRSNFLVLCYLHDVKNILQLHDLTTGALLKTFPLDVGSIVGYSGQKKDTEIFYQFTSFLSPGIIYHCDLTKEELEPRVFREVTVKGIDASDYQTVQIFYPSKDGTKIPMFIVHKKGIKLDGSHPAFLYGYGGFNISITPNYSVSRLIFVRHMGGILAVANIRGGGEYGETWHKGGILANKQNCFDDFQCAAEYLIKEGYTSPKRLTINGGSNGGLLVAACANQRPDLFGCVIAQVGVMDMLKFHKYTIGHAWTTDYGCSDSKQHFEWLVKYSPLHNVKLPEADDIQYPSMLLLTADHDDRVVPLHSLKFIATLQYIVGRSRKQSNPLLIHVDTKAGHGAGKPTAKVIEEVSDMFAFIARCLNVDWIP
As to the kind of experiment: PREP enzymatic activity assay. As to conditions: Z-Gly-Pro-AMC substrate. Here is the method:
as §1

Assay [5] has as its target T5, recombinant human DPPIV (rhDPPIV) (Homo sapiens, UniProt P27487).
T5 construct: purchased R&S system (so in the source)
As to the kind of experiment: DPPIV enzymatic activity assay. As to conditions: H-Gly-Pro-pNA substrate.

Assay [6] has as its target T6, mouse plasma FAPα (Mus musculus, UniProt P97321).
T6 construct: from tissue; host or cells: mouse plasma (C57BL/6, EDTA)
T6 sequence (P97321 24-761 limits assumed): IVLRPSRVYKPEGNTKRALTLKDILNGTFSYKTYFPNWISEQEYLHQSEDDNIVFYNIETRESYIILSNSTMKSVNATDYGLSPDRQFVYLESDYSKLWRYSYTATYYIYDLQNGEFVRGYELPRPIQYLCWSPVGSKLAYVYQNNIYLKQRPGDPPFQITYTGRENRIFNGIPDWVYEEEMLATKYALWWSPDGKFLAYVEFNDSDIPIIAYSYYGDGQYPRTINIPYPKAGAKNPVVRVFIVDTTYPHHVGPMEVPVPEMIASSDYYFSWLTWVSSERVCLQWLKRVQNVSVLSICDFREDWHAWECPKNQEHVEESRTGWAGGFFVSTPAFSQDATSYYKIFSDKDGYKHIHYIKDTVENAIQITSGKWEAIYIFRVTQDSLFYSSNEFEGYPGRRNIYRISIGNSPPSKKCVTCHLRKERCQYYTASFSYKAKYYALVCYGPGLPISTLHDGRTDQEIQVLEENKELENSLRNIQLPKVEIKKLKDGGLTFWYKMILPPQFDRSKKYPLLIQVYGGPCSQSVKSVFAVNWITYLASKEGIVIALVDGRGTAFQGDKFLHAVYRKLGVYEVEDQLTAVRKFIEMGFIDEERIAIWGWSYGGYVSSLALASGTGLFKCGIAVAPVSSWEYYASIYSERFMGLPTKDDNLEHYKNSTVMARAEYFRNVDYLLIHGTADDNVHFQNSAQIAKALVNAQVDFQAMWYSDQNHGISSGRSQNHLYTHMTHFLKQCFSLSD
As to the kind of experiment: FAPα enzymatic activity in mouse plasma. As to conditions: C57BL/6 mouse plasma; PRXS-AMC substrate; read-out: mouse plasma FAPα (PRXS-AMC) (exo IC50). Here is the method: The blood sample was immediately centrifuged at approximately 9000 g at 4° C. for 5 minutes. Plasma was separated and stored at −80° C. in aliquots of 300 μL. […] The assay was performed for 1 hour at 37° C. protected from light. 7-Amino-4-Methylcoumarin (AMC) release was detected measuring fluorescence at an excitation wavelength of 380 nm and an emission wavelength of 460 nm using a Multifunction Microplate Reader (Synergy 4, Biotek). All measurements were carried out at least as a single point.

As usually defined, the IC50 is the concentration at which inhibition is half-maximal.

T5 sequence (P27487 whole entry): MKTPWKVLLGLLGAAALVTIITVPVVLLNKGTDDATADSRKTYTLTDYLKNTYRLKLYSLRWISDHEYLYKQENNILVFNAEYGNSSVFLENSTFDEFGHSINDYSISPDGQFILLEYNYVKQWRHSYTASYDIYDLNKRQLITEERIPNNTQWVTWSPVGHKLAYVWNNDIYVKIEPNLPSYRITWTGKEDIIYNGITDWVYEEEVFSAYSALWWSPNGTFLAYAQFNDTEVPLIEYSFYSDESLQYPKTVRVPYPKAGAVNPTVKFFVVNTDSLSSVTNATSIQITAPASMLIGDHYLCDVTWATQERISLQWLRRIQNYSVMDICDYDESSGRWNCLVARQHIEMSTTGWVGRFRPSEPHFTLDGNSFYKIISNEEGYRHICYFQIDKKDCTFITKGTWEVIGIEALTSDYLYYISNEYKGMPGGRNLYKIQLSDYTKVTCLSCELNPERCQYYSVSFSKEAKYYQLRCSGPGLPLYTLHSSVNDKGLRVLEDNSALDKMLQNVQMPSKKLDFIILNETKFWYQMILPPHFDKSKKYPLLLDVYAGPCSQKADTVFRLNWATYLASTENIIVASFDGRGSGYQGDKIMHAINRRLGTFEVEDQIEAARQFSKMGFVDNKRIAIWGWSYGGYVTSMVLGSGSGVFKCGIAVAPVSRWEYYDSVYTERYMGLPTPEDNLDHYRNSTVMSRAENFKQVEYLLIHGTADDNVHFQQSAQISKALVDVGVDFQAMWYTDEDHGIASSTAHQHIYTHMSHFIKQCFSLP
T2 sequence (P28843 37-760 limits assumed): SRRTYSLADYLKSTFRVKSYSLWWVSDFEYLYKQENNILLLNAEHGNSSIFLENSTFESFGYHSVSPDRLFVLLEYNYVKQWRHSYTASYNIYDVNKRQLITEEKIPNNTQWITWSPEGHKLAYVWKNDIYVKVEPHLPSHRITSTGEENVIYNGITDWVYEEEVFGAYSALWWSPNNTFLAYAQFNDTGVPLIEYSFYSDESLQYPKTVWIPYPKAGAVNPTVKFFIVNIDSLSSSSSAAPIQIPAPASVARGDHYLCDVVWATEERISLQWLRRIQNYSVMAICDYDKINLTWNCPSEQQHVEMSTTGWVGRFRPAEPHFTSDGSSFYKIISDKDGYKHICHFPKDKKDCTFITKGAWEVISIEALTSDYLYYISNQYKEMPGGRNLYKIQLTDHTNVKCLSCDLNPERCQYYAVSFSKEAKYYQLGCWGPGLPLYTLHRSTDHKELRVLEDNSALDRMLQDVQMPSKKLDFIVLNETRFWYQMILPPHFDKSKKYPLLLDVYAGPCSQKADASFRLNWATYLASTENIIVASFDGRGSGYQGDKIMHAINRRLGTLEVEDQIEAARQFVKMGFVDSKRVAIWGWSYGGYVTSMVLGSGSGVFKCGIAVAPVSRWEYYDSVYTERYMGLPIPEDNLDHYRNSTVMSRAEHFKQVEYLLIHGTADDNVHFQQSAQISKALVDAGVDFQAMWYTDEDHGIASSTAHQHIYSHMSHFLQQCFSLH

For the molecule `CC(c1ccccc1)c1cnccc1C(=O)NCC(=O)N1CC(F)(F)C[C@H]1C#N` (stereo partly drawn) [Compound 123, N-(2-((S)-2-cyano-4,4-difluoropyrrolidin-1-yl)-2-oxoethyl)-3-(1-phenylethyl)isonicotinamide], the inhibition at 1 µM in assay [1] was over 50%. The IC50 in assay [1] (Table 2, Z-Gly-Pro-AMC) is under 1 µM; in assay [1] (Table 3) it was under 1 µM; in assay [2] it was over 10 µM; in assay [3] it was 1 to 10 µM; in assay [4] it was 1 to 10 µM; in assay [5], over 10 µM.

Take `N#C[C@@H]1CC(F)(F)CN1C(=O)CNC(=O)c1c[nH]c(=O)cc1Cc1ccccc1` [Compound 121, (S)-4-benzyl-N-(2-(2-cyano-4,4-difluoropyrrolidin-1-yl)-2-oxoethyl)-6-oxo-1,6-dihydropyridine-3-carboxamide]: the IC50 in assay [6] was under 1 µM; in assay [1] (Table 2, Z-Gly-Pro-AMC), under 1 µM; in assay [1] (Table 3) it was under 1 µM; in assay [2] it was over 10 µM; in assay [3] it was 1 to 10 µM; in assay [4], 1 to 10 µM. Besides, in assay [5], the IC50 was over 10 µM. In assay [1], the inhibition at 1 µM was over 50%.

For `N#C[C@@H]1CC(F)(F)CN1C(=O)CNC(=O)c1ccncc1-c1ccc(Cl)c(F)c1` [Compound 111, (S)-3-(4-chloro-3-fluorophenyl)-N-(2-(2-cyano-4,4-difluoropyrrolidin-1-yl)-2-oxoethyl)isonicotinamide], the IC50 in assay [6] was under 1 µM; in assay [1] (Table 2, Z-Gly-Pro-AMC) it was under 1 µM; in assay [1] (Table 3), under 1 µM; in assay [2], 1 to 10 µM; in assay [3], over 10 µM; in assay [4] it was over 10 µM. Further, in assay [5], the IC50 was 1 to 10 µM. In addition, in assay [1], the inhibition at 1 µM was over 50%.

In the case of `N#C[C@@H]1CC(F)(F)CN1C(=O)CNC(=O)c1ccncc1Oc1ccccc1` [Compound 97, (S)—N-(2-(2-cyano-4,4-difluoropyrrolidin-1-yl)-2-oxoethyl)-3-phenoxyisonicotinamide], in assay [1], the inhibition at 1 µM was over 50%. Besides, the IC50 is under 1 µM in assay [1] (Table 2, Z-Gly-Pro-AMC); under 1 µM in assay [1] (Table 3); over 10 µM in assay [3]; over 10 µM in assay [4]; over 10 µM in assay [5].

Take `N#C[C@@H]1CC(F)(F)CN1C(=O)CNC(=O)c1c[nH]c(=O)cc1-c1ccnc2ccccc12` [Compound 116, (S)—N-(2-(2-cyano-4,4-difluoropyrrolidin-1-yl)-2-oxoethyl)-6-oxo-4-(quinolin-4-yl)-1,6-dihydropyridine-3-carboxamide]: the inhibition at 1 µM in assay [1] is over 50%. In addition, the IC50 in assay [1] (Table 2, Z-Gly-Pro-AMC) is under 1 µM; in assay [1] (Table 3) it was under 1 µM; in assay [3] it was over 10 µM; in assay [4], over 10 µM; in assay [5] it was 1 to 10 µM.

In the case of `CC(C)(C)c1cccc(-c2cnccc2C(=O)NCC(=O)N2CC(F)(F)C[C@H]2C#N)c1` [Compound 112, (S)-3-(3-(tert-butyl)phenyl)-N-(2-(2-cyano-4,4-difluoropyrrolidin-1-yl)-2-oxoethyl)isonicotinamide], in assay [1], the inhibition at 1 µM is over 50%. Also, the IC50 is under 1 µM in assay [1] (Table 2, Z-Gly-Pro-AMC); under 1 µM in assay [1] (Table 3); over 10 µM in assay [3]; over 10 µM in assay [4]; over 10 µM in assay [5].

For the molecule `N#C[C@@H]1CC(F)(F)CN1C(=O)CNC(=O)c1ccncc1Nc1ccnc2ccccc12` [Compound 119, (S)—N-(2-(2-cyano-4,4-difluoropyrrolidin-1-yl)-2-oxoethyl)-3-(quinolin-4-ylamino)isonicotinamide], the inhibition at 1 µM in assay [1] is over 50%. Moreover, the IC50 in assay [1] (Table 2, Z-Gly-Pro-AMC) was under 1 µM; in assay [1] (Table 3), under 1 µM; in assay [3] it was over 10 µM; in assay [4] it was over 10 µM; in assay [5] it was over 10 µM.
